From the supplement of paper PMC10307832

Tests used:
Test in all cases: relative viability (nuclei count vs DMSO), 5 days (fraction); higher = more cells survive
[1] = compound: CN(C)CC1=CC(=CC=C1)N=C(C2=CC=CC=C2)C3=C(NC4=C3C=CC(=C4)C(=O)N(C)C)O + CCNC(=O)c1noc(-c2cc(C(C)C)c(O)cc2O)c1-c1ccc(CN2CCOCC2)cc1 [Luminespib] (partner 0.01 µM)
How it was run: (§1)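 The day after seeding in 1536-well plates, lung cancer cell lines were treated by pin tool with a single drug, or with a fixed anchor-drug dose together with five library-drug doses (not always all listed) in √10 steps. After 5 days, a combined fix-and-stain solution (final 0.05% Triton X-100, 1% formaldehyde, 1 ug/ml Hoechst) was added. Nuclei counted on 4× images gave relative viability as treated counts over vehicle counts, reported as the median of duplicate plates.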

[2] = compound: CN(C)CC1=CC(=CC=C1)N=C(C2=CC=CC=C2)C3=C(NC4=C3C=CC(=C4)C(=O)N(C)C)O + COc1cc2c(Oc3ccc(NC(=O)C4(C(=O)Nc5ccc(F)cc5)CC4)cc3F)ccnc2cc1OCCCN1CCOCC1 [Foretinib] (partner 0.25 µM)
How it was run: as §1

[3] = compound: CN(C)CC1=CC(=CC=C1)N=C(C2=CC=CC=C2)C3=C(NC4=C3C=CC(=C4)C(=O)N(C)C)O + Cc1cc(Nc2cc(N3CCN(C)CC3)nc(Sc3ccc(NC(=O)C4CC4)cc3)n2)n[nH]1 [Tozasertib] (partner 0.1 µM)
How it was run: as §1

[4] = compound: CN(C)CC1=CC(=CC=C1)N=C(C2=CC=CC=C2)C3=C(NC4=C3C=CC(=C4)C(=O)N(C)C)O + NC(=O)Nc1cc(-c2cccc(F)c2)sc1C(=O)N[C@H]1CCCNC1 [AZD7762] (partner 0.2 µM)
How it was run: as §1

| Cell Line | relative viability ([1]; first compound 0.08 µM) | relative viability ([1]; first compound 0.253 µM) | relative viability ([1]; first compound 0.8 µM) | relative viability ([1]; first compound 2.53 µM) | relative viability ([1]; first compound 8 µM) | relative viability ([2]; first compound 0.08 µM) | relative viability ([2]; first compound 0.253 µM) | relative viability ([2]; first compound 0.8 µM) | relative viability ([2]; first compound 2.53 µM) | relative viability ([2]; first compound 8 µM) | relative viability ([3]; first compound 0.08 µM) | relative viability ([3]; first compound 0.253 µM) | relative viability ([3]; first compound 0.8 µM) | relative viability ([3]; first compound 2.53 µM) | relative viability ([3]; first compound 8 µM) | relative viability ([4]; first compound 0.08 µM) | relative viability ([4]; first compound 0.253 µM) | relative viability ([4]; first compound 0.8 µM) | relative viability ([4]; first compound 2.53 µM) | relative viability ([4]; first compound 8 µM) |
| --- | --- | --- | --- | --- | --- | --- | --- | --- | --- | --- | --- | --- | --- | --- | --- | --- | --- | --- | --- | --- |
| 201T | 1.06 | 0.993 | 1.01 | 1.05 | 0.802 | 1.12 | 1.01 | 1.07 | 0.957 | 0.774 | 0.937 | 0.97 | 0.857 | 0.904 | 0.809 | 0.675 | 0.6 | 0.627 | 0.607 | 0.525 |
| A549 |  |  |  |  |  | 0.988 | 0.927 | 0.948 | 0.899 | 1.02 |  |  |  |  |  |  |  |  |  |  |
| A-427 | 0.995 | 0.929 | 1 | 0.667 | 0.756 | 1.07 | 1.17 | 1.07 | 0.986 | 0.883 | 0.22 | 0.188 | 0.182 | 0.213 | 0.147 | 0.75 | 0.666 | 0.712 | 0.676 | 0.631 |
| ABC-1 | 0.609 | 0.618 | 0.422 | 0.445 | 0.552 | 1.31 | 1.12 | 0.851 | 1 | 1.28 | 0.198 | 0.173 | 0.15 | 0.179 | 0.171 | 0.805 | 1.11 | 0.81 | 0.903 | 0.676 |
| BEN | 0.338 | 0.269 | 0.312 | 0.212 | 0.437 | 0.705 | 0.68 | 0.641 | 0.68 | 0.596 | 0.619 | 0.493 | 0.5 | 0.426 | 0.538 | 0.701 | 0.71 | 0.695 | 0.728 | 0.745 |
| CAL-12T | 0.27 | 0.451 | 0.877 | 0.542 | 0.376 | 1.09 | 1.22 | 1.44 | 0.864 | 1.29 | 0.375 | 0.342 | 0.311 | 0.308 | 0.292 | 0.627 | 0.668 | 0.58 | 0.647 | 0.687 |
| COR-L23 | 0.752 | 0.787 | 0.791 | 0.523 | 0.665 | 1.08 | 0.972 | 1.03 | 0.88 | 0.925 | 0.185 | 0.226 | 0.201 | 0.205 | 0.154 |  |  |  |  |  |
| COR-L 105 | 0.865 | 0.688 | 0.567 | 1.23 | 0.622 | 1.1 | 1.05 | 0.967 | 0.926 | 0.991 | 0.372 | 0.369 | 0.336 | 0.346 | 0.361 |  |  |  |  |  |
| Calu-6 |  |  |  |  |  | 0.923 | 0.882 | 0.948 | 0.906 | 0.929 |  |  |  |  |  |  |  |  |  |  |
| ChaGo-K-1 | 0.688 | 0.612 | 0.668 | 0.529 | 0.598 | 0.945 | 0.911 | 1.04 | 0.902 | 0.771 | 0.235 | 0.25 | 0.217 | 0.22 | 0.213 | 0.832 | 0.824 | 0.902 | 0.822 | 0.896 |
| EKVX | 0.864 | 0.921 | 1 | 0.927 | 1.06 | 0.88 | 1.06 | 0.555 | 0.776 | 0.804 | 0.445 | 0.387 | 0.459 | 0.378 | 0.323 | 0.745 | 0.727 |  | 0.726 | 0.696 |
| EMC-BAC-2 | 1.2 | 1.28 | 1.15 | 1.16 | 1.11 | 1.11 | 0.99 | 0.963 | 0.944 | 0.958 | 0.297 | 0.283 | 0.383 | 0.258 | 0.267 | 1.23 | 1.15 | 1.27 | 1.06 | 1.16 |
| EPLC-272H | 0.309 | 0.363 | 0.239 | 0.308 | 0.211 | 0.654 | 0.776 | 0.534 | 0.681 | 0.51 | 0.351 | 0.392 | 0.303 | 0.278 | 0.272 | 0.229 | 0.252 | 0.203 | 0.302 | 0.214 |
| H3255 | 0.899 | 0.894 | 0.751 | 0.836 | 0.998 | 0.857 | 0.857 | 0.631 | 1.04 | 0.848 | 0.528 | 0.575 | 0.65 | 0.71 | 0.484 | 1.08 | 0.85 | 0.842 | 0.967 | 0.942 |
| HARA | 0.867 | 0.742 | 0.763 | 0.747 | 0.656 | 0.398 | 1.02 | 1.06 | 0.867 | 0.79 | 0.11 | 0.125 | 0.0998 | 0.108 | 0.0768 | 0.296 | 0.351 | 0.155 | 0.258 | 0.324 |
| HCC-15 | 0.304 | 0.205 | 0.181 | 0.278 | 0.279 | 1.01 | 1.02 | 1.1 | 0.99 | 1 | 0.424 | 0.387 | 0.39 | 0.365 | 0.453 | 1.44 | 1.2 | 1.24 | 1.4 | 1.31 |
| HCC-44 | 1.15 | 0.761 | 1.03 | 0.917 | 0.991 |  |  |  |  |  | 1.08 | 0.836 | 1.03 | 0.927 | 0.862 | 1 | 0.987 | 1.03 | 0.946 | 1.04 |
| HCC-78 |  |  |  |  |  | 0.564 | 0.582 | 0.472 | 0.61 | 0.547 | 0.507 | 0.426 | 0.403 | 0.383 | 0.364 | 0.464 | 0.772 | 0.568 | 0.639 | 0.831 |
